Measured values taken from PubChem BioAssay (NCI).
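Each compound was tested at five concentrations against cells in 96-well plates for 48 hours. Here, GI50 denotes the concentration required for 50% inhibition of growth. TGI marks complete inhibition of growth.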

Legend:
Assay in all cases: inhibition of tumour cell growth, NCI panel, 48 h
[1] = system: HS 578T breast
[2] = system: OVCAR-5 ovarian
[3] = system: SK-MEL-5 melanoma
[4] = system: TK-10 renal
[5] = system: IGROV1 ovarian
[6] = system: CCRF-CEM leukemia
[7] = system: MOLT-4 leukemia
[8] = system: SR leukemia
[9] = system: NCI/ADR-RES ovarian
[10] = system: HCC-2998 colon
[11] = system: CAKI-1 renal
[12] = system: RPMI-8226 leukemia
[13] = system: NCI-H226 lung
[14] = system: BT-549 breast
[15] = system: EKVX NSCLC
[16] = system: MALME-3M melanoma
[17] = system: COLO 205 colon
[18] = system: RXF 393 renal
[19] = system: SF-295 CNS
[20] = system: A498 renal
[21] = system: UACC-257 melanoma
[22] = system: HL-60(TB) leukemia
[23] = system: NCI-H522 lung
[24] = system: DU-145 prostate
[25] = system: 786-0 renal
[26] = system: UO-31 renal
[27] = system: MDA-MB-468 breast
[28] = system: LOX IMVI melanoma
[29] = system: SK-OV-3 ovarian
[30] = system: A549 NSCLC
[31] = system: M14 melanoma
[32] = system: ACHN renal
[33] = system: UACC-62 melanoma
[34] = system: K-562 leukemia
[35] = system: SN12C renal
[36] = system: T-47D breast

Q: What does the source list for `CC1=C(CCC=O)C2=C(C)C3(CC3)[C@@](C)(O)C(=O)C2=C1`?
A: GI50 [1]: 0.302 µM; TGI [1]: 1.28 µM; GI50 [2]: 0.0656 µM; TGI [2]: 0.416 µM; GI50 [3]: 0.0946 µM; TGI [3]: 0.24 µM; GI50 [4]: 0.218 µM; TGI [4]: 1.08 µM; GI50 [5]: 0.0625 µM; TGI [5]: 0.312 µM; GI50 [6]: 0.756 µM; TGI [6]: > 100 µM; GI50 [7]: 0.38 µM; GI50 [8]: 0.237 µM; TGI [8]: 1.12 µM; GI50 [9]: 0.104 µM; TGI [9]: 0.33 µM; GI50 [10]: 0.121 µM; TGI [10]: 0.261 µM; GI50 [11]: 0.123 µM; TGI [11]: 0.855 µM; GI50 [12]: 0.444 µM; TGI [12]: > 100 µM; GI50 [13]: 0.157 µM; TGI [13]: 0.587 µM; GI50 [14]: 0.0358 µM; TGI [14]: 0.157 µM; GI50 [15]: 0.21 µM; TGI [15]: 0.546 µM; GI50 [16]: 0.135 µM; TGI [16]: 0.266 µM; GI50 [17]: 0.144 µM; TGI [17]: 0.303 µM; GI50 [18]: 0.0207 µM; TGI [18]: 0.0394 µM; GI50 [19]: 0.222 µM; TGI [19]: 1.11 µM; GI50 [20]: 0.269 µM; TGI [20]: 0.616 µM; GI50 [21]: 0.208 µM; TGI [21]: 0.464 µM; GI50 [22]: 0.118 µM; GI50 [23]: 0.167 µM; TGI [23]: 0.369 µM; GI50 [24]: 0.0376 µM; TGI [24]: 0.845 µM; GI50 [25]: 0.11 µM; TGI [25]: 0.44 µM; GI50 [26]: 0.0534 µM; TGI [26]: 0.263 µM; GI50 [27]: 0.1 µM; TGI [27]: 0.239 µM; GI50 [28]: 0.14 µM; TGI [28]: 0.35 µM; GI50 [29]: 0.108 µM; TGI [29]: 0.606 µM; GI50 [30]: 0.159 µM; TGI [30]: 4.21 µM; GI50 [31]: 0.101 µM; TGI [31]: 0.254 µM; GI50 [32]: 0.0789 µM; TGI [32]: 0.636 µM; GI50 [33]: 0.158 µM; TGI [33]: 0.315 µM; GI50 [34]: 0.33 µM; GI50 [35]: 0.167 µM; TGI [35]: 0.755 µM; GI50 [36]: 0.108 µM; TGI [36]: 0.882 µM
